Where two headings read alike, the source gives them in different places.
Assays:
[1] = test system: wild-type HIV-1 IIIB strain; assay: Antiviral activity in MT4 LTR-EGFP cellular assay; type: cell-based; details: Human immunodeficiency virus 1, 72 h; wild-type HIV-1 IIIB, MT4 LTR-EGFP cells, three days after infection; pEC50 = -log10(EC50); read-out: Antiviral Activity IIIB pEC50 (converted)
CYP2C9 = CYP2C9 (Homo sapiens, UniProt P11712); assay: CYP450 inhibition, fluorescent substrate assay, CYP2C9; type: biochemical; details: pH 7.4
In short: (§1)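 Test compounds were preincubated for 5 min at 37° C with CYP P450 enzyme and an NADPH generating system before phosphate-buffered (pH 7.4) fluorogenic substrate was added. Reactions were stopped with acetonitrile and the fluorescent product was read on a plate reader. Inhibition appears as loss of fluorescent signal.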

CYP1A2 = target: T1, CYP1A2 (Homo sapiens, UniProt P05177); assay: CYP450 inhibition, fluorescent substrate assay, CYP1A2; type: biochemical; details: E. coli expressed CYP1A2, pH 7.4, probe CEC (5 μM), 10 μM test compound, substrate CEC 5 μM, read-out: 1A2-CEC % inh.
T1 construct: host or cells: E. coli
T1 sequence (P05177 1-516): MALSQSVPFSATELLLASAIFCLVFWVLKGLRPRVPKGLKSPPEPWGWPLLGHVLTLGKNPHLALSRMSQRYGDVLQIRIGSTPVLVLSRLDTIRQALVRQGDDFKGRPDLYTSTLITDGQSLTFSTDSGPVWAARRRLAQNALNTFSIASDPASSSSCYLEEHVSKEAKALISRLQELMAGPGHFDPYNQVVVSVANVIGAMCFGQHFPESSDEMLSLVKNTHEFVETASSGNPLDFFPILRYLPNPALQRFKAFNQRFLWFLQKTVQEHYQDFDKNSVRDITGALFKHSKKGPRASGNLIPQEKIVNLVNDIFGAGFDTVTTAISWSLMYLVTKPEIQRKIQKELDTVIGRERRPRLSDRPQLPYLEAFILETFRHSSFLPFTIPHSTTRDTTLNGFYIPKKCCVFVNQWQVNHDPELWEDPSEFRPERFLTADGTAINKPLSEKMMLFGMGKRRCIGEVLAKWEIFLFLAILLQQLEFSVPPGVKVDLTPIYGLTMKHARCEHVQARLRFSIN
In short: as §1

in vitro = in vitro ADME, human; details: human, pH 7.4
CYP3A4 = target: T2, CYP3A4 (Homo sapiens, UniProt P08684); assay: CYP450 inhibition, fluorescent substrate assay, CYP3A4; type: biochemical; details: 10 μM test compound
T2 construct: host or cells: E. coli
In short: as §1

[2] = Cytotoxicity in mock-infected MT4 CMV-EGFP cells; type: cell-based; details: human, pCC50 = -log10(CC50), read-out: Toxicity MT4 pCC50 (converted)
CYP2C19 = target: T3, CYP2C19 (Homo sapiens, UniProt P33261); assay: CYP450 inhibition, fluorescent substrate assay, CYP2C19; type: biochemical; details: E. coli expressed CYP2C19, pH 7.4, probe CEC (25 μM), 10 μM test compound, substrate CEC 25 μM, read-out: 2C19-CEC % inh.
T3 construct: host or cells: E. coli
In short: as §1

CYP2D6 = target: T4, CYP2D6 (Homo sapiens, UniProt P10635); assay: CYP450 inhibition, fluorescent substrate assay, CYP2D6; type: biochemical; details: E. coli expressed CYP2D6, pH 7.4, probe AMMC (3 μM), 10 μM test compound, substrate AMMC 3 μM, read-out: 2D6-AMMC % inh.
T4 construct: host or cells: E. coli
In short: as §1

T2 sequence (P08684 whole entry): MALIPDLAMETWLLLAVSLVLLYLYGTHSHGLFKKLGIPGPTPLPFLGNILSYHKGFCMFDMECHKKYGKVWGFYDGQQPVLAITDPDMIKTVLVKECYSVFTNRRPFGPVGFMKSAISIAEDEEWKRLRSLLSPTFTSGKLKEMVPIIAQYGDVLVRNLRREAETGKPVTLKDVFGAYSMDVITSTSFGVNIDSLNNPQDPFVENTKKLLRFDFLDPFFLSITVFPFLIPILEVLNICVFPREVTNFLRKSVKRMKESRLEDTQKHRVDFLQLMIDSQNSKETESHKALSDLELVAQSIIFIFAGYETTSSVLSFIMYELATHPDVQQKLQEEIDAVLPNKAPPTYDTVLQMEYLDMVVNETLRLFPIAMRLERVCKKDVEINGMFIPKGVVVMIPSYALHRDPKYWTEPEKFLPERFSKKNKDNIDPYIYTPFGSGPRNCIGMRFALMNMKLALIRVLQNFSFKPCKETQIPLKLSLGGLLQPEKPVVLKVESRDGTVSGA
T4 sequence (P10635 whole entry): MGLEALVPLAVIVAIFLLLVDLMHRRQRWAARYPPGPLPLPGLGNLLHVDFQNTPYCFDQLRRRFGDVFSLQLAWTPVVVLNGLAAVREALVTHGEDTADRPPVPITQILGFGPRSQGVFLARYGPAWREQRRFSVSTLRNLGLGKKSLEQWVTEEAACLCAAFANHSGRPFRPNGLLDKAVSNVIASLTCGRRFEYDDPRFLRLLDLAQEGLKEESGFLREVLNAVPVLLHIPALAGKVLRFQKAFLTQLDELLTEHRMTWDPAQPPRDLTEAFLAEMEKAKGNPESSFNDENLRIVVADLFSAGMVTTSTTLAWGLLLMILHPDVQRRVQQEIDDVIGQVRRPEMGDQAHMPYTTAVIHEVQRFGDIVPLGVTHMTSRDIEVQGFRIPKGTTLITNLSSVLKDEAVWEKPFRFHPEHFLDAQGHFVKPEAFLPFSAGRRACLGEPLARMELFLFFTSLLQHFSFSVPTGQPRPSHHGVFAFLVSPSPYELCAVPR
T3 sequence (P33261 whole entry): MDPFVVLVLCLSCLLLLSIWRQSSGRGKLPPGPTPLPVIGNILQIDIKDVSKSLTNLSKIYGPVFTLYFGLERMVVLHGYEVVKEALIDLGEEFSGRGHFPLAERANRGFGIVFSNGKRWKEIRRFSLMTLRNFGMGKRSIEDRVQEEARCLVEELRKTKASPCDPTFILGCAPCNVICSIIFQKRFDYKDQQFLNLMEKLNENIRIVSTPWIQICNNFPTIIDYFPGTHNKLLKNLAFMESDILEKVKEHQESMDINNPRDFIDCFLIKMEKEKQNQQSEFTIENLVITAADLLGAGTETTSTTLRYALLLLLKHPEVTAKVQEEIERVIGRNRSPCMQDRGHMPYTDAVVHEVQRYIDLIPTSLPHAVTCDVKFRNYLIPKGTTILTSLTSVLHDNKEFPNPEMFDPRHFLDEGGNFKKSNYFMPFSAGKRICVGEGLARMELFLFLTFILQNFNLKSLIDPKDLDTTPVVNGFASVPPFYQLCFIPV
CYP2C9, sequence (P11712 whole entry): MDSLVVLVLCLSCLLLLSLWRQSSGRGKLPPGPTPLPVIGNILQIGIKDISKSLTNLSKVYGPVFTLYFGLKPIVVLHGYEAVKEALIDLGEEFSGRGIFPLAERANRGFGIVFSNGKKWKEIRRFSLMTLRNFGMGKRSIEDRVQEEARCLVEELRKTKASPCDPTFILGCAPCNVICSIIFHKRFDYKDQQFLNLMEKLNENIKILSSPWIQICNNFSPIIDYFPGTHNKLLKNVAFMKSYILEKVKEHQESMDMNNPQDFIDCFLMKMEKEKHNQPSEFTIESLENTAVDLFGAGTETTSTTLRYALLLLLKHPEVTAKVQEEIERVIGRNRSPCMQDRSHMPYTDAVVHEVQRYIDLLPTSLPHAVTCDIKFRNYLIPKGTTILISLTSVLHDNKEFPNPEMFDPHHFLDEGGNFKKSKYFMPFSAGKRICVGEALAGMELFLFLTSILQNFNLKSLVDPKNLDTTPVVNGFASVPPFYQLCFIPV

## O=C(N[C@@H](Cc1ccccc1)[C@H](O)CN(CC1CCCCC1)C(=O)c1ccncc1)OCc1cncs1 [Compound C27]
[1]
  EC50: 74.1 µM
CYP2C9
  inhibition at 30 min, 10 μM: 84%
CYP1A2
  inhibition at 15 min, 10 μM: 10%
In vitro
  recovery at 15 min, 5 μM: 98%
CYP3A4; E. coli expressed CYP3A4, pH 7.4, probe BFC (150 μM), substrate BFC 150 μM, read-out: 3A4-BFC % inh.
  inhibition at 30 min, 10 μM: 101%
CYP3A4; E. coli expressed CYP3A4, pH 7.4, probe BQ (60 μM), substrate BQ 60 μM, read-out: 3A4-BQ % inh.
  inhibition at 30 min, 10 μM: 81%
CYP3A4; E. coli expressed CYP3A4, pH 7.4, probe DBF (1 μM), substrate DBF 1 μM, 10 min, read-out: 3A4-DBF % inh.
  inhibition at 10 min, 10 μM: 90%
[2]
  CC50 at 3 days: 83.2 µM
CYP2C19
  inhibition at 30 min, 10 μM: 96%
CYP2D6
  inhibition at 45 min, 10 μM: 86%

Source: patent publication US8664391B2, “Amide compounds as boosters of antivirals” (Janssen R&D Ireland Ltd, priority 2008, dated 2014)
